Source: patent US7595330B2, “Benzimidazole thiophene compounds” (SmithKline Beecham Corporation, priority 2005, dated 2009)
Read-outs that look alike come from different tables or passages of the source.

What was measured:
[1] = system: HCT116; assay: Methylene blue growth inhibition assay, HCT116; format: cell-based; conditions: Homo sapiens
Method: (§1) II. Methylene Blue Growth Inhibition Assay—Inhibition of Cell Proliferation by PLK1 Inhibitors
(§2) Generally, exponentially growing cell lines of different tumor origins, cultured in appropriate media containing 10% fetal bovine serum at 37° C. in a 5% CO2 incubator were plated at low density (less than 2000 cells/well) in 96-well plates. […]. Seventy two hours post-treatment, cell numbers were determined using 100 μl per well of methylene blue (Sigma M9140) (0.5% in 50:50 Ethanol:water). Stain was incubated at room temperature for 30 minutes before plates were rinsed and dye solubilized in 1% N-lauroyl sarcosine, sodium salt, (Sigma L5125, in PBS) (further details of a methylene blue assay are described below). Plates were read on a microplate reader, measuring the OD at 620 nm.
(§3) . The data are shown in Table 1 below and represent a compilation of several different experiments, each performed using the general parameters outlined above, although minor variations may have been employed in some instances.
(§4) In one assay, normal human foreskin fibroblasts (HFF), human colon (HCT116, RKO), lung (H460, A549) and breast (MCF7) tumor cell lines were cultured in high glucose DMEM (Life Technologies) containing 10% fetal bovine serum (FBS) at 37° C. in a humidified 5% CO2, 95% air incubator. Cells were harvested using trypsin/EDTA, counted using a haemocytometer, and plated in 100 μL of culture media per well, at the following densities, in a 96-well tissue culture plate (Falcon 3075): HFF 5,000 cells/well, HCT116 3,000 cells/well, RKO 2,500 cells/well, H460 2,500 cells/well, A549 5,000 cells/well, MCF7 4,000 cells/well. The next day, compounds were diluted in low glucose DMEM containing 100 μg/mL gentamicin, at twice the final required concentration, from 10 mM stock solutions in DMSO. 100 μL/well of these dilutions were added to the 100 μL of media currently in the assay plates. Medium containing 0.6% DMSO was added to control wells. The final concentration of DMSO in all wells was 0.3%. Cells were incubated at 37° C., 5% CO2 for 72 h. Medium was removed by aspiration. Cell biomass was estimated by staining cells with 80 μL per well methylene blue (Sigma M9140, 0.5% in 50:50 ethanol:water), and incubation at room temperature for 30-60 min. Stain was removed by aspiration and the plates rinsed by immersion in water, then air-dried. To release stain from the cells, 100 μL of solubilization solution was added (1% N-lauroyl sarcosine, Sodium salt, Sigma L5125, in PBS), and plates were shaken gently for about 30 min. Optical density at 620 nm was measured on a microplate reader. Percent inhibition of cell growth was calculated relative to vehicle treated control wells. […].

[2] = High throughput solubility assay; format: physicochemical; conditions: aqueous buffer, pH 7.4, 0.05M phosphate buffer
Method: IV. High Throughput Solubility Assay
Two samples are prepared for each compound. One (the standard sample) contains the compound at a fixed concentration of 20 μM in an aqueous/organic mixed solvent cocktail. The other (the test sample) contains the compound at a maximum concentration of 200 μM in pH 7.4, 0.05M phosphate buffer and shaking for 24 h. The test sample is filtered by 0.45μ filter and then spun for 10 min to remove any undissolved solid. HPLC analyses are preformed on these samples. The peak areas are used for computing solubility.

[3] = system: MCF7; assay: Methylene blue growth inhibition assay, MCF7; format: cell-based; conditions: Homo sapiens
Method: as §1, §2, §3, §4

[4] = system: H460; assay: Methylene blue growth inhibition assay, H460; format: cell-based; conditions: Homo sapiens
Method: as §1, §2, §3, §4

[5] = system: A549; assay: Methylene blue growth inhibition assay, A549; format: cell-based; conditions: Homo sapiens
Method: as §1, §2, §3, §4

[6] = system: normal human foreskin fibroblasts (HFF); assay: Methylene blue growth inhibition assay, HFF; format: cell-based; conditions: Fibroblast, 72 h
Method: as §1, §2, §3, §4

[7] = system: human plasma proteins; assay: Protein binding to human plasma proteins using equilibrium dialysis; format: in vitro ADME; conditions: pH 7.4, equilibrium dialysis 6 h, 37° C.
Method: III. Determination of Protein Binding to Human Plasma Proteins Using Equilibrium Dialysis
96 Well Plate (High Throughput Dialysis): Stock solutions of compounds were spiked into human plasma at a target concentration of 2000 ng/mL. The mixture was inverted gently several times to insure homogeneity and triplicate 50 μL aliquots were collected to verify initial concentrations. Following assembly of dialysis plate (HTDialysis membrane strips, molecular weight cut off limit of 12,000-14,000 daltons), spiked plasma (150 μL) was placed in the donor compartment of the well and Phosphate Buffered Saline pH 7.4 (150 μL) in the receiver compartment. Eight wells were set up per compound and plasma type. Plate was placed in a 37° C. incubator on a plate shaker. Following the 6 h incubation period, the plate was removed. Single 50 μL aliquots from each donor and receiver compartment (per well) were analyzed. Sample analysis was by LC/MS/MS (results reported as Drug Peak Area/Internal Standard Peak Area ratios). Protein binding assay can also be performed using dialysis cells instead of HT Dialysis 96 well plates. In Table 1, % Protein Binding, +=>98%; ++=95-98%: +++=<95%.

[8] = biological target: T1, PLK1 kinase domain (Homo sapiens, UniProt P53350); assay: Assay for inhibition of PLK1 (SPA, 33P-ATP, biotinylated peptide substrate); format: biochemical; conditions: 1 μM ATP, 2 nM PLK1 kinase domain; read-out: PLK1 pIC50 (converted)
T1 construct: made in house; host or cells: baculovirus infected T. ni cells
Method: I. Assay for Inhibition of PLK1
All procedures were performed at 4° C. Cells were lysed in 50 mM HEPES, 200 mM NaCl, 50 mM imidazole, 5% glycerol; pH 7.5. The homogenate was centrifuged at 14K rpm in a SLA-1500 rotor for 1 h and the supernatant filtered through a 1.2 micron filter. The supernatant was loaded onto a Nickel chelating Sepharose (Amersham Pharmacia) column and washed with lysis buffer. Protein was eluted using 20%, 30% and 100% buffer B steps where buffer B is 50 mM HEPES, 200 mM NaCl, 300 mM imidazole, 5% glycerol; pH 7.5. Fractions containing PLK were determined by SDS-PAGE. Fractions containing PLK were diluted five-fold with 50 mM HEPES, 1 mM DTT, 5% glycerol; pH 7.5, then loaded on an SP Sepharose (Amersham Pharmacia) column. After washing the column with 50 mM HEPES, 1 mM DTT, 5% glycerol; pH 7.5, PLK was step eluted with 50 mM HEPES, 1 mM DTT, 500 mM NaCl; 5% glycerol; pH 7.5. PLK was concentrated using a 10 kDa molecular weight cutoff membrane and then loaded onto a Superdex 200 gel filtration (Amersham Pharmacia) column equilibrated in 25 mM HEPES, 1 mM DTT, 500 mM NaCl, 5% glycerol; pH 7.5. Fractions containing PLK were determined by SDS-PAGE. PLK was pooled, aliquoted and stored at −80° C. Samples were quality controlled using mass spectrometry, N-terminal sequencing and amino acid analysis.
B. Enzyme activity +/− inhibitors was determined as follows: All measurements were obtained under conditions where signal production increased linearly with time and enzyme. Test compounds were added to white 384-well assay plates (0.1 μL for 10 μL and some 20 μL assays, 1 μL for some 20 μL assays) at variable known concentrations in 100% DMSO. DMSO (1-5% final, as appropriate) and EDTA (65 mM in reaction) were used as controls.
Reaction Mix (10 or 20 μL) was quickly added to each well immediately following addition of enzyme via automated liquid handlers and incubated 1-1.5 h at 22° C. The 20 μL enzymatic reactions were stopped with 50 μL of stop mix (50 mM EDTA, 4.0 mg/ml Streptavidin SPA beads in Standard Dulbecco's PBS (without Mg^2+ and Ca^2+), 50 μM ATP) per well. The 10 μL reactions were stopped with 10 μL of stop mix (50 mM EDTA, 3.0 mg/mL Streptavidin-coupled SPA Imaging Beads (“LeadSeeker”) in Standard Dulbecco's PBS (without Mg^2+ and Ca^2+), 50 μM ATP) per well. Plates were sealed with clear plastic seals, spun at 500×g for 1 min or settled overnight, and counted in Packard TopCount for 30 seconds/well (regular SPA) or imaged using a Viewlux imager (LeadSeeker SPA). Signal above background (EDTA controls) was converted to percent inhibition relative to that obtained in control (DMSO-only) wells.

[9] = system: RKO; assay: Methylene blue growth inhibition assay, RKO; format: cell-based; conditions: Homo sapiens, 72 h
Method: as §1, §2, §3, §4

[10] = system: A549-L; assay: Cell-Titer-Glo inhibition of cell proliferation, A549-L; format: cell-based; conditions: CellTiter-Glo, 72 h
Method: (§5) V. Cell-Titer-Glo—Inhibition of Cell Proliferation by PLK1 Inhibitors
(§6) Exponentially growing cell lines of different tumor origins, cultured in appropriate media containing 10% fetal bovine serum at 37° C. in a 5% CO2 incubator were plated at low density (less than 2000 cells/well) in 96-well plates. Twenty four hours post-plating, cells were treated with different concentrations of test compounds ranging from 10 uM to 0.04 nM. Several wells were left untreated as a control. Seventy two hours post-treatment, cell numbers were determined using 50-100 ul per well of CellTiter-Glo (Promega #G7573). Plates were incubated at room temperature for 15 minutes and the chemiluminescent signal was read on the Victor V or Envison 2100 reader.
(§7) The Cell-Titer Glo data are shown in Table 2 below and represent a compilation of several different experiments, each performed using the general parameters outlined above, although minor variations may have been employed in some instances.

[11] = system: MV522; assay: Cell-Titer-Glo inhibition of cell proliferation, MV522; format: cell-based; conditions: CellTiter-Glo, 72 h
Method: as §5, §6, §7

[12] = system: COLO205; assay: Cell-Titer-Glo inhibition of cell proliferation, COLO205; format: cell-based; conditions: Homo sapiens, COLO 205, CellTiter-Glo, 72 h
Method: as §5, §6, §7

[13] = system: SKOV-3; assay: Cell-Titer-Glo inhibition of cell proliferation, SKOV-3; format: cell-based; conditions: Homo sapiens, SK-OV-3, CellTiter-Glo, 72 h
Method: as §5, §6, §7

[14] = system: H1299; assay: Cell-Titer-Glo inhibition of cell proliferation, H1299; format: cell-based; conditions: Homo sapiens, NCI-H1299, CellTiter-Glo, 72 h
Method: as §5, §6, §7

[15] = system: MX-1; assay: Cell-Titer-Glo inhibition of cell proliferation, MX-1; format: cell-based; conditions: Homo sapiens, MX1, CellTiter-Glo, 72 h
Method: as §5, §6, §7

[16] = system: MDA-MB-468; assay: Cell-Titer-Glo inhibition of cell proliferation, MDA-MB-468; format: cell-based; conditions: Homo sapiens, CellTiter-Glo, 72 h
Method: as §5, §6, §7

[17] = system: HCT116; assay: Cell-Titer-Glo inhibition of cell proliferation, HCT116; format: cell-based; conditions: Homo sapiens, HCT-116, CellTiter-Glo, 72 h
Method: as §5, §6, §7

[18] = system: HT29; assay: Cell-Titer-Glo inhibition of cell proliferation, HT29; format: cell-based; conditions: Homo sapiens, HT-29, CellTiter-Glo, 72 h
Method: as §5, §6, §7

[19] = system: MCF7; assay: Cell-Titer-Glo inhibition of cell proliferation, MCF7; format: cell-based; conditions: Homo sapiens, CellTiter-Glo, 72 h
Method: as §5, §6, §7

[20] = HCT-116, methylene blue, 72 h, HCT116, read-out: HCT116 IC50
[21] = methylene blue, 72 h, MCF7, read-out: MCF7 IC50
[22] = NCI-H460, methylene blue, 72 h, H460, read-out: H460 IC50
[23] = methylene blue, 72 h, A549, read-out: A549 IC50
[24] = methylene blue, HFF normal fibroblasts, read-out: HFF IC50
[25] = methylene blue, read-out: RKO IC50

T1 sequence (P53350 21-346): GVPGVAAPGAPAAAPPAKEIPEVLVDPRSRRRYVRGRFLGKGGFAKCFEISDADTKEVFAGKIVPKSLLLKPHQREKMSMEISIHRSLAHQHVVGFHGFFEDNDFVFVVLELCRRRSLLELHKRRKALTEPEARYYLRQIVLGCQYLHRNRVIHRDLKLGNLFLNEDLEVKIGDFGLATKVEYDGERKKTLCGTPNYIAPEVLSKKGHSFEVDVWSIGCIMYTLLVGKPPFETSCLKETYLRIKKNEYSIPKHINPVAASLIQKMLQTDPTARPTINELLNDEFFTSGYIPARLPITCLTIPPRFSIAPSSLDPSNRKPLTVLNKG

| IC50 [1, 20] | solubility at 24 h [2] | IC50 [3, 21] | IC50 [4, 22] | IC50 [5, 23] | fraction unbound at 6 h, 2000 ng/mL [7] | IC50 [8] | Compound | IC50 [6, 24] | IC50 [9, 25] | other results |
| --- | --- | --- | --- | --- | --- | --- | --- | --- | --- | --- |
| 0.1 to 1 µM | < 30 µM | 0.1 to 1 µM | > 1 µM | > 1 µM | > 0.05 | 10 to 1000 nM | NC(=O)c1sc(-n2cnc3ccc(OCC4CCNCC4)cc32)cc1OCc1ccccc1C(F)(F)F [Com. Ex 143, reference compound] | > 1 µM | 0.1 to 1 µM |  |
| 0.1 to 1 µM | < 30 µM | 0.1 to 1 µM | < 0.1 µM | < 0.1 µM | < 0.02 | < 10 nM | COc1cc2ncn(-c3cc(OC(C)c4ccccc4C(F)(F)F)c(C(N)=O)s3)c2cc1OC (stereo not drawn) [Com. Ex 127, reference compound] | > 1 µM | < 0.1 µM |  |

| Compound | IC50 [1, 20] | solubility at 24 h [2] | IC50 [3, 21] | IC50 [4, 22] | IC50 [5, 23] | fraction unbound at 6 h, 2000 ng/mL [7] | IC50 [8] | IC50 [6, 24] | IC50 [9, 25] | other results |
| --- | --- | --- | --- | --- | --- | --- | --- | --- | --- | --- |
| C[C@@H](Oc1cc(-n2cnc3ccc(OC4CCNCC4)cc32)sc1C(N)=O)c1ccccc1C(F)(F)F [Example 5, 5-[6-(4-Piperidinyloxy)-1H-benzimidazol-1-yl]-3-({(1R)-1-[2-(trifluoromethyl)phenyl]ethyl}oxy)-2-thiophenecarboxamide] |  | > 100 µM |  |  |  | 0.02 to 0.05 |  |  |  | IC50 ([1]; HCT-116, 72 h, read-out: HCT116 IC50 (μM)): < 0.1 µM; IC50 [10]: < 500 nM; IC50 ([3]; MCF7, 72 h, read-out: MCF7 IC50 (μM)): < 0.1 µM; IC50 [11]: < 500 nM; IC50 ([4]; NCI-H460, 72 h, read-out: H460 IC50 (μM)): < 0.1 µM; IC50 [12]: < 500 nM; IC50 [13]: < 500 nM; IC50 [14]: < 500 nM; IC50 [15]: < 500 nM; IC50 ([5]; A549, 72 h, read-out: A549 IC50 (μM)): < 0.1 µM; IC50 ([6]; read-out: HFF IC50 (μM)): 0.1 to 1 µM; IC50 ([9]; read-out: RKO IC50 (μM)): < 0.1 µM; IC50 [16]: < 500 nM; IC50 [17]: < 500 nM; IC50 [18]: < 500 nM; IC50 [19]: < 500 nM |
